Reference: the NIST ThermoML archive (doi:10.1021/acs.jced.7b00564)

Experiment: xn = mol fraction of the nth substance listed
Conditions: Gas, isochoric method

F/C=C/C(F)(F)F [trans-1,3,3,3-tetrafluoropropene] + CC(C)C
Conditions	specific volume [m3/kg]
303.15 K, 259.6 kPa, x2 = 0.516	0.1062
303.15 K, 267.9 kPa, x2 = 0.29	0.0895
303.15 K, 304.9 kPa, x2 = 0.685	0.1004
303.15 K, 305.5 kPa, x2 = 0.428	0.0844
303.15 K, 321 kPa, x2 = 0.612	0.089
303.15 K, 367.4 kPa, x2 = 0.755	0.0856
308.15 K, 264.5 kPa, x2 = 0.516	0.1062
308.15 K, 273 kPa, x2 = 0.29	0.0895
308.15 K, 310.7 kPa, x2 = 0.685	0.1004
308.15 K, 311.3 kPa, x2 = 0.428	0.0844
308.15 K, 327.2 kPa, x2 = 0.612	0.089
308.15 K, 374.9 kPa, x2 = 0.755	0.0856
313.15 K, 269.2 kPa, x2 = 0.516	0.1062
313.15 K, 277.9 kPa, x2 = 0.29	0.0896
313.15 K, 316.5 kPa, x2 = 0.685	0.1005
313.15 K, 317.1 kPa, x2 = 0.428	0.0844
313.15 K, 333.4 kPa, x2 = 0.612	0.0891
313.15 K, 382.2 kPa, x2 = 0.755	0.0857
318.15 K, 274 kPa, x2 = 0.516	0.1063
318.15 K, 282.8 kPa, x2 = 0.29	0.0896
318.15 K, 322.2 kPa, x2 = 0.685	0.1005
318.15 K, 322.8 kPa, x2 = 0.428	0.0845
318.15 K, 339.5 kPa, x2 = 0.612	0.0891
318.15 K, 389.5 kPa, x2 = 0.755	0.0857
323.15 K, 278.8 kPa, x2 = 0.516	0.1063
323.15 K, 287.8 kPa, x2 = 0.29	0.0896
323.15 K, 328 kPa, x2 = 0.685	0.1005
323.15 K, 328.5 kPa, x2 = 0.428	0.0845
323.15 K, 345.6 kPa, x2 = 0.612	0.0891
323.15 K, 396.8 kPa, x2 = 0.755	0.0857
328.15 K, 283.5 kPa, x2 = 0.516	0.1063
328.15 K, 292.7 kPa, x2 = 0.29	0.0896
328.15 K, 333.7 kPa, x2 = 0.685	0.1005
328.15 K, 334.2 kPa, x2 = 0.428	0.0845
328.15 K, 351.7 kPa, x2 = 0.612	0.0891
328.15 K, 404 kPa, x2 = 0.755	0.0857
333.15 K, 288.2 kPa, x2 = 0.516	0.1063
333.15 K, 297.6 kPa, x2 = 0.29	0.0896
333.15 K, 339.5 kPa, x2 = 0.685	0.1005
333.15 K, 339.9 kPa, x2 = 0.428	0.0845
333.15 K, 357.8 kPa, x2 = 0.612	0.0891
333.15 K, 411.2 kPa, x2 = 0.755	0.0857
338.15 K, 292.9 kPa, x2 = 0.516	0.1064
338.15 K, 302.5 kPa, x2 = 0.29	0.0897
338.15 K, 345.1 kPa, x2 = 0.685	0.1006
338.15 K, 345.6 kPa, x2 = 0.428	0.0845
338.15 K, 363.8 kPa, x2 = 0.612	0.0892
338.15 K, 418.3 kPa, x2 = 0.755	0.0857
343.15 K, 297.6 kPa, x2 = 0.516	0.1064
343.15 K, 307.4 kPa, x2 = 0.29	0.0897
343.15 K, 350.8 kPa, x2 = 0.685	0.1006
343.15 K, 351.2 kPa, x2 = 0.428	0.0846
343.15 K, 369.8 kPa, x2 = 0.612	0.0892
343.15 K, 425.4 kPa, x2 = 0.755	0.0858
348.15 K, 302.3 kPa, x2 = 0.516	0.1064
348.15 K, 312.2 kPa, x2 = 0.29	0.0897
348.15 K, 356.5 kPa, x2 = 0.685	0.1006
348.15 K, 356.9 kPa, x2 = 0.428	0.0846
348.15 K, 375.8 kPa, x2 = 0.612	0.0892
348.15 K, 432.4 kPa, x2 = 0.755	0.0858
353.15 K, 307 kPa, x2 = 0.516	0.1064
353.15 K, 317.1 kPa, x2 = 0.29	0.0897
353.15 K, 362.1 kPa, x2 = 0.685	0.1006
353.15 K, 362.6 kPa, x2 = 0.428	0.0846
353.15 K, 381.8 kPa, x2 = 0.612	0.0892
353.15 K, 439.4 kPa, x2 = 0.755	0.0858
358.15 K, 311.7 kPa, x2 = 0.516	0.1064
358.15 K, 321.9 kPa, x2 = 0.29	0.0897
358.15 K, 367.7 kPa, x2 = 0.685	0.1007
358.15 K, 368.2 kPa, x2 = 0.428	0.0846
358.15 K, 387.8 kPa, x2 = 0.612	0.0892
358.15 K, 446.5 kPa, x2 = 0.755	0.0858
363.15 K, 316.4 kPa, x2 = 0.516	0.1065
363.15 K, 326.8 kPa, x2 = 0.29	0.0898
363.15 K, 373.3 kPa, x2 = 0.685	0.1007
363.15 K, 373.9 kPa, x2 = 0.428	0.0846
363.15 K, 393.7 kPa, x2 = 0.612	0.0892
363.15 K, 453.5 kPa, x2 = 0.755	0.0858
368.15 K, 321.1 kPa, x2 = 0.516	0.1065
368.15 K, 331.6 kPa, x2 = 0.29	0.0898
368.15 K, 379 kPa, x2 = 0.685	0.1007
368.15 K, 379.5 kPa, x2 = 0.428	0.0846
368.15 K, 399.7 kPa, x2 = 0.612	0.0893
368.15 K, 460.5 kPa, x2 = 0.755	0.0859
373.15 K, 325.7 kPa, x2 = 0.516	0.1065
373.15 K, 336.5 kPa, x2 = 0.29	0.0898
373.15 K, 384.7 kPa, x2 = 0.685	0.1007
373.15 K, 385.1 kPa, x2 = 0.428	0.0847
373.15 K, 405.6 kPa, x2 = 0.612	0.0893
373.15 K, 467.6 kPa, x2 = 0.755	0.0859
378.15 K, 330.4 kPa, x2 = 0.516	0.1065
378.15 K, 341.4 kPa, x2 = 0.29	0.0898
378.15 K, 390.3 kPa, x2 = 0.685	0.1007
378.15 K, 390.7 kPa, x2 = 0.428	0.0847
378.15 K, 411.7 kPa, x2 = 0.612	0.0893
378.15 K, 474.5 kPa, x2 = 0.755	0.0859
383.15 K, 335.1 kPa, x2 = 0.516	0.1066
383.15 K, 346.2 kPa, x2 = 0.29	0.0898
383.15 K, 395.9 kPa, x2 = 0.685	0.1008
383.15 K, 396.3 kPa, x2 = 0.428	0.0847
383.15 K, 417.6 kPa, x2 = 0.612	0.0893
383.15 K, 481.6 kPa, x2 = 0.755	0.0859
